SMILES | melting point [°C]
CC(C)c1ccc2[nH]c3c(c2c1)Cc1ccccc1-3 | 193
CNc1ncc2c(n1)-c1ccc(Cl)cc1C(c1ccccc1F)=NC2 | 172 to 179
CC(O)c1cc([N+](=O)[O-])ccc1F (centres undefined) | < 50
CC(C)(CO)NCCCn1ccnc1 | 81 to 85
COC(=O)CCC(CCCCNS(=O)(=O)c1ccc(Cl)cc1)CCCc1cccnc1 (centres undefined) | 81 to 82
c1ccc(CCOc2ncnc3nc[nH]c23)cc1 | 209 to 210
CN(C)C(=O)COc1ccc2ccc(N)nc2n1 | 182
O=c1ccc(-c2cc(F)cc(F)c2)n[nH]1 | 230
Fc1cc(F)c(N=C2NCCN2)c(F)c1 | 148 to 150
COc1ccc(-c2ccc(-c3ccc(OC)cc3)c(-c3ccc(O)cc3)n2)cc1 | 204 to 205
Cc1cn2ccnc(Cl)c2n1 | 128 to 130
Cc1ccc(C)n1Nc1ccc(Cl)nn1 | 173 to 175
OCc1cc(C=CCN2Cc3ccccc3C2)ccc1O | 177 to 178
CCCc1c(C(=O)N(C)Cc2ccc3cc(O)ccc3c2)cnn1-c1ccccc1 | 138 to 141
CNCCOc1ccc2nc(SCc3ccc(Cl)cc3)sc2c1 | 56 to 58
[O-][N+]1=C(c2ccccc2)C2=NCCN2c2cc(N3CCNCC3)ccc21 | 209 to 211
CCOC(=O)c1c(-c2ccccc2)nc2ccccn12 | 68
CCCN(CCC)C(=O)n1cnc(S(=O)(=O)CC)n1 | 44 to 45
O=S1(=O)c2cccc3cccc(c23)N1CCCN1CC=C(c2c[nH]c3ccc(O)cc23)CC1 | 214

Next, values leading:

melting point [°C] | SMILES
230 | CC(=O)OC(c1nc2c(C(F)(F)F)cccc2c(O)c1C(=O)Nc1ccccn1)C(C)C (centres undefined)
145 to 147 | CCOC(=O)N1CCc2nnc(NN)cc2C1
241 to 242 | CCn1c(=O)c2c(nc(/C=C/c3ccc(OC)c(OC(C)=O)c3)n2C)n(CC)c1=O
251 | Cc1ccc(C(=O)Oc2ccc3c(OC(=O)c4ccc(C)c(O)c4)c4ccccc4cc3c2OC(=O)c2ccc(C)c(O)c2)cc1O
130 to 131 | O=C1CCc2ccc(OCCCN3CCCN(c4cccc(Cl)c4Cl)CC3)cc2N1
195 to 197 | CCCCCCCCc1sc(NC(=O)c2cc3cc(C)cc(C)c3n2Cc2cccc(C(=O)O)c2)nc1-c1cc(OC)c(Cl)cc1OC
97 to 100 | CC(C)Cn1c(CCCCNC(=O)N2CCOCC2)nc2c(N)nc3ccccc3c21
158 to 162 | Nc1c2c(nc3ccccc13)CC(O)CC2O (centres undefined)
218 | CCOc1ccc2c(c1)n(C1CCCCC1)c(=O)n2S(=O)(=O)c1ccc(C(=O)NC(C)(C)CO)cc1OC
160 to 162 | CCOC(=O)CCc1ccc(C(C)(C)C)c(NC(=O)CC2c3ccccc3Oc3ccccc32)c1
104 to 106 | CCCOc1c(-c2cc(C=CC(=O)O)ccc2O)cc(C(C)(C)C)cc1C(C)(C)C
189 to 190 | COC(=O)c1ccc(-c2nc(-c3ccc(Cl)cc3)no2)c([N+](=O)[O-])c1
193 to 194 | COc1ccccc1-c1n[nH]c2c(NCCO)cc(C)nc12
168 to 170 | CC(C)(C)C(=O)Cn1ncc(-c2ccc(S(C)(=O)=O)cc2)c(-c2ccc(F)cc2)c1=O
68 to 74 | CC(C)(C)OC(=O)Nc1ccc(OC(=O)C2CCCCC2)c(C(=O)O)c1
135 to 136 | COc1cc(OC(C)=O)c2ccccc2c1OC(C)=O
124 | COc1ccc(C2(c3cccc(C(Cc4ccccc4)Cc4ccccc4)n3)OCCCO2)cc1OC
135 to 137 | O=C(NCC1CC1)c1ccnc(N2CCN(Cc3ccc(F)cc3)C2=O)c1
169 to 172 | COc1cc2oc(=O)c(CCN3CCN(c4ccccc4)CC3)c(C)c2cc1OC
55 to 64 | CON=C(C)CCN1C(=O)c2ccccc2C1=O

Reference: a melting point compilation (Tetko et al.; mined from patent text by program, amines drawn as free bases though some values may be those of a salt)
